Experimental data from PMC12441791, “Structural modifications of toxyloxanthone C and macluraxanthone isolated from Maclura cochinchinensis: cytotoxicity, antibacterial activity, and in silico studies” (RSC Advances, 2025).
≈ marks a conversion by molar mass, not a printed value. Read-outs that look alike come from different tables or passages of the source.

Assays:
[1] = system: HelaS3, A549, and HepG2 cancer cell lines; assay: Cytotoxicity stated over the three cancer cell lines; format: cell-based, human; settings: HelaS3, A549, HepG2 taken together; for IC50: Homo sapiens, read-out: Cytotoxicity against three cancer cell lines (IC50 values, range over lines)
Description: (§1) All types of cancer and non-tumorigenic cells were purchased from ATCC. Cytotoxicity assays against human cervical carcinoma (HelaS3; ATCC CCL2-2), human hepatocellular carcinoma (HepG2; ATCC HB-8065), human lung carcinoma (A549; ATCC CCL-185), and African green monkey kidney (Vero; ATCC CCL-81) cell lines were performed by […].[44] Cells proliferation was performed using the MTT colorimetric assay,[44] as in our previous publication.[4]

[2] = system: Bacillus subtilis ATCC 6633; assay: Antibacterial microdilution MIC, B. subtilis; format: cell-based
Description: (§2) Four bacterial cultures Bacillus cereus ATCC 11778, Bacillus subtilis ATCC 6633, Staphylococcus aureus ATCC 25923, and Methicillin resistant Staphylococcus aureus (MRSA) were employed as the test organisms. Minimum inhibitory concentration (MIC) values were determined using the dilution method, as described in the M07-A9,[45] as described in our previous paper.[4,46]

[3] = system: HelaS3 (human cervical carcinoma) cells; assay: In vitro cytotoxicity, HelaS3; format: cell-based; settings: HeLa S3
Description: as §1

[4] = system: A549 (human lung carcinoma) cells; assay: In vitro cytotoxicity, A549; format: cell-based
Description: as §1

[5] = system: Vero (African green monkey kidney) cells; assay: In vitro cytotoxicity, Vero normal cells; format: cell-based
Description: as §1

[6] = In vitro cytotoxicity, Vero normal cells; format: cell-based, African green monkey; settings: African green monkey, Vero cells (kidney, non-tumorigenic)
Description: as §1

[7] = system: Methicillin resistant Staphylococcus aureus (MRSA); assay: Antibacterial microdilution MIC, MRSA; format: cell-based; settings: read-out: MIC MRSA
Description: as §2

S. aureus ATCC 25923 = assay: Antibacterial microdilution MIC, S. aureus; format: cell-based; settings: Staphylococcus aureus
Description: as §2

[8] = system: MRSA, S. aureus, B. subtilis, and B. cereus; assay: Antibacterial activity stated over all four Gram-positive strains; format: cell-based; settings: for MIC / MIC against all bacterial strains tested: MRSA, S. aureus, B. subtilis, B. cereus taken together; for MIC: read-out: MIC against all bacterial strains tested; for fold improvement in antibacterial potency (MIC) compared to parent 1: all bacterial strains
Description: as §2

[9] = system: HepG2 (human hepatocellular carcinoma) cells; assay: In vitro cytotoxicity, HepG2; format: cell-based
Description: as §1

[10] = system: Bacillus cereus ATCC 11778; assay: Antibacterial microdilution MIC, B. cereus; format: cell-based
Description: as §2

[11] = ATCC6633, microdilution method, ATCC 6633, read-out: MIC B. subtilis
[12] = ATCC25923, microdilution method, ATCC 25923, read-out: MIC S. aureus
[13] = ATCC11778, microdilution method, ATCC 11778, read-out: MIC B. cereus

Structure (SMILES) | IC50 [1] [µM] | MIC [2, 11] [µg/mL] | IC50 [3] [µM] | IC50 [4] [µM] | Cytotoxicity (IC50, μM) Vero [5] | IC50 [6] [µM] | MIC ([7]; microdilution method) [µg/mL] | MIC (S. aureus ATCC 25923; [12]) [µg/mL] | MIC [8] [µg/mL] | fold improvement in antibacterial potency (MIC) compared to parent 1 [8] [fold] | IC50 [9] [µM] | MIC [10, 13] [µg/mL] | MIC against all bacterial strains tested [8] | Cytotoxicity against three cancer cell lines (IC50 values, range over lines) [1] | MIC ([2]; ATCC6633, read-out: MIC B. subtilis) [µg/mL] | MIC [7] [µg/mL] | MIC (S. aureus ATCC 25923; ATCC25923, read-out: MIC S. aureus) [µg/mL] | MIC ([10]; ATCC11778, read-out: MIC B. cereus) [µg/mL]
CC(=O)Oc1ccc2c(=O)c3c(O)c4c(cc3oc2c1OC(C)=O)OC(C)C4(C)C (stereo not shown) [Compound 1a, 5,6-Diacetoxytoxyloxanthone C] | 12.2 to 22.6 | 4 (≈ 9.7 µM) | 22.6 ± 2.02 | 12.2 ± 1.08 | without showing cytotoxicity | > 100 | 4 (≈ 9.7 µM) | 4 (≈ 9.7 µM) | 4 (≈ 9.7 µM) | 32 | 21.1 ± 1.18 | 4 (≈ 9.7 µM) |  |  |  |  |  | 
CCCCC(=O)Oc1ccc2c(=O)c3c(OC(=O)CCCC)c4c(cc3oc2c1OC(=O)CCCC)OC(C)C4(C)C (stereo not shown) [Compound 1b, 1,5,6-Tripentanoyloxytoxyloxanthone C] |  | 8 (≈ 13.8 µM) | 20.5 ± 4.92 | 5.77 ± 2.14 | strong cytotoxicity | 5.59 ± 0.36 | 8 (≈ 13.8 µM) | 8 (≈ 13.8 µM) | 8 to 16 (≈ 13.8 to 27.6 µM) |  | 17.2 ± 4.5 | 16 (≈ 27.6 µM) |  |  |  |  |  | 
CC1Oc2cc3oc4c(OS(C)(=O)=O)c(OS(C)(=O)=O)ccc4c(=O)c3c(O)c2C1(C)C (stereo not shown) [Compound 1c, 5,6-Dimesyloxytoxyloxanthone C] |  | > 128 | 65.3 ± 3.92 | > 100 |  | > 100 | > 128 | > 128 |  |  | > 100 | > 128 | no antibacterial activity |  |  |  |  | 
COc1ccc2c(=O)c3c(O)c4c(cc3oc2c1OC)OC(C)C4(C)C (stereo not shown) [Compound 1d, 5,6-Dimethoxytoxyloxanthone C] |  | > 128 | > 100 | > 100 |  | > 100 | > 128 | > 128 |  |  | > 100 | > 128 | no antibacterial activity | no cytotoxicity |  |  |  | 
CCOc1ccc2c(=O)c3c(O)c4c(cc3oc2c1OCC)OC(C)C4(C)C (stereo not shown) [Compound 1e, 5,6-Diethoxytoxyloxanthone C] |  | > 128 | 50.4 ± 8.45 | > 100 |  | > 100 | > 128 | > 128 |  |  | > 100 | > 128 | no antibacterial activity |  |  |  |  | 
CC1Oc2c(c(O)c3c(=O)c4ccc(O)c(O)c4oc3c2Br)C1(C)C (stereo not shown) [Compound 1f, 4-Bromotoxyloxanthone C] |  | 4 (≈ 9.82 µM) | 17.4 ± 1.75 | 7.52 ± 0.36 | cytotoxic toward normal cells | 9.52 ± 1.02 | 4 (≈ 9.82 µM) | 4 (≈ 9.82 µM) | 4 (≈ 9.82 µM) | 32 | 19.4 ± 1.52 | 4 (≈ 9.82 µM) |  |  |  |  |  | 
C=CC(C)(C)c1c2c(c(O)c3c(=O)c4ccc(OC(C)=O)c(OC(C)=O)c4oc13)C=CC(C)(C)O2 [Compound 2a, 5,6-Diacetoxymacluraxanthone] | 15.7 to 25.6 | 32 (≈ 66.9 µM) | 25.6 ± 4.77 | 15.7 ± 1.17 |  | 10.1 ± 1.67 | 8 (≈ 16.7 µM) | 16 (≈ 33.4 µM) | 8 to 32 (≈ 16.7 to 66.9 µM) |  | 24.5 ± 2.98 | 16 (≈ 33.4 µM) |  |  |  |  |  | 
C=CC(C)(C)c1c2c(c(OC(=O)CCCC)c3c(=O)c4ccc(OC(=O)CCCC)c(OC(=O)CCCC)c4oc13)C=CC(C)(C)O2 [Compound 2b, 1,5,6-Tripentanoyloxymacluraxanthone] |  | > 128 | 55.3 ± 2.18 | 41.8 ± 1.91 |  | 36 ± 2.32 | > 128 | > 128 |  |  | > 100 | > 128 |  |  |  |  |  | 
C=CC(C)(C)c1c2c(c(O)c3c(=O)c4ccc(OS(C)(=O)=O)c(OS(C)(=O)=O)c4oc13)C=CC(C)(C)O2 [Compound 2c, 5,6-Dimesyloxymacluraxanthone] |  | > 128 | 84.3 ± 7.86 | 48.8 ± 4.73 |  | > 100 | > 128 | > 128 |  |  | > 100 | > 128 |  |  |  |  |  | 
C=CC(C)(C)c1c2c(c(O)c3c(=O)c4ccc(OC)c(OC)c4oc13)C=CC(C)(C)O2 [Compound 2d, 5,6-Dimethoxymacluraxanthone] |  | > 128 | > 100 | > 100 |  | > 100 | > 128 | > 128 |  |  | > 100 | > 128 |  | no cytotoxicity |  |  |  | 
C=CC(C)(C)c1c2c(c(O)c3c(=O)c4ccc(O)c(OC)c4oc13)C=CC(C)(C)O2 [Compound 2e, 5-Methoxymacluraxanthone] |  | > 128 | > 100 | 90.5 ± 6.23 |  | > 100 | > 128 | > 128 |  |  | > 100 | > 128 |  |  |  |  |  | 
C=CC(C)(C)c1c2c(c(O)c3c(=O)c4ccc(OCC)c(OCC)c4oc13)C=CC(C)(C)O2 [Compound 2f, 5,6-Diethoxymacluraxanthone] |  | > 128 | > 100 | > 100 |  | > 100 | > 128 | > 128 |  |  | > 100 | > 128 |  | no cytotoxicity |  |  |  | 
C=CC(C)(C)c1c2c(c(O)c3c(=O)c4ccc(O)c(OCC)c4oc13)C=CC(C)(C)O2 [Compound 2g, 5-Ethoxymacluraxanthone] |  | > 128 | > 100 | > 100 |  | > 100 | > 128 | > 128 |  |  | > 100 | > 128 |  | no cytotoxicity |  |  |  | 
COc1cccc2c1C(=O)c1c(O)c3c(c(O)c1C2=O)C[C@@](O)(C(=O)CO)C[C@@H]3O[C@H]1C[C@H](N)[C@H](O)[C@H](C)O1 [Doxorubicin, reference compound] |  |  | 0.29 ± 0.02 | 0.48 ± 0.036 |  | 1.95 ± 0.13 |  |  |  |  | 0.37 ± 0.02 |  |  |  |  |  |  | 
CN[C@H](CC(C)C)C(=O)N[C@H]1C(=O)N[C@@H](CC(N)=O)C(=O)N[C@H]2C(=O)N[C@H]3C(=O)N[C@H](C(=O)N[C@H](C(=O)O)c4cc(O)cc(O)c4-c4cc3ccc4O)[C@H](O)c3ccc(c(Cl)c3)Oc3cc2cc(c3O[C@@H]2O[C@H](CO)[C@@H](O)[C@H](O)[C@H]2O[C@H]2C[C@](C)(N)[C@H](O)[C@H](C)O2)Oc2ccc(cc2Cl)[C@H]1O [Vancomycin, reference compound] |  |  |  |  |  |  |  |  |  |  |  |  |  |  | 2 (≈ 1.38 µM) | 2 (≈ 1.38 µM) | 2 (≈ 1.38 µM) | 1 (≈ 0.69 µM)
